The text below walks through data of patent US6864244B2, “Anhydrous crystalline 1-[4(S)-azido-2(S),3(R)-dihydroxy-4-(hydroxymethyl)-1(R)-cyclopentyl]cytosine hemisulfate as useful as an antiviral agent” (Roche Palo Alto LLC, priority 2002, dated 2005).

SMILES strings stand for the structures. Where two headings read alike, the source gives them in different places.

Holding throughout (type): physicochemical
Series [1] can be described thus: Hygroscopicity at 93% relative humidity (weight gain, HPLC assay). Here is the method:
(§1) A small amount of the polymorphic Form C crystal (about 10 mg) was weighed into a weighing bottle and placed in a chamber with controlled relative humidity for 4 weeks and the percentage of water absorbed was calculated form the weight gain. The sample was also assayed by HPLC against an external standard on a Waters 2690 HPLC at 276 nm with a Zorbax SB-Phenyl column. The mobile phase is a gradient run at 1 mL/min consisting of acetonitrile/water with 10 mM heptane sulfonic acid, 0.1% phosphoric acid in both. The gradient is run as 10% ACN to 100% in 30 min. The data was processed using Waters Millennium software version 3.2. The thermal stability also was determined at 60° C. and at 40° C./75% relative humidity. The purity of the sample was determined by assaying weighed aliquots by HPLC against an external standard.

The nature of series [2]: Differential scanning calorimetry (DSC), thermal properties. In general terms: DSC measures the heat that a sample takes up or gives off during a temperature scan.
A short description of series [3]: Accelerating rate calorimetric (ARC) determination (adiabatic calorimetry conditions).
Series [4] in a line: Thermal stability on storage at 60° C. and at 40° C./75% relative humidity (HPLC assay against external standard). The conditions noted are these: for ASSAY: HPLC. Here is the method: as §1
A short description of series [5]: Polymorph transformation in the presence of moisture.

For `[N-]=[N+]=N[C@]1(CO)O[C@@H](n2ccc(N)nc2=O)[C@H](O)[C@@H]1O` [Ia], the “hygroscopicity relative to the free base” value in series [1] is given as “less hygroscopic than the free base”. Further, the “weight gain on storage” value in series [1] (stored at high relative humidity) is recorded as “No weight gain”.

Regarding `[N-]=[N+]=N[C@]1(CO)O[C@@H](n2ccc(N)nc2=O)[C@H](O)[C@@H]1O` [Form C of Ia], the “exothermic decomposition onset temperature” value in series [2] was “approximately 210 °C”; in series [2] (listed as Form C polymorph of Ia), 210 °C. For the same compound, the “Adiabatic Temperature Rise” value in series [3] was 265 °C. Further, the “corrected exothermic decomposition onset temperature” value in series [3] was 152 °C. Besides, the “enthalpy of decomposition exotherm” value in series [3] is -132 cal/g. Moreover, the APPEARANCE result in series [1] (93% RH, 4 weeks) was “white powder”; in series [4] (40° C./75% RH, 1 week) it was “white powder”; in series [4] (40° C./75% RH, 2 weeks) it was “white powder”; in series [4] (40° C./75% RH, 4 weeks) it was “white powder”; in series [4] (60° C., 1 week), “white powder”; in series [4] (60° C., 2 weeks), “white powder”. Also, the APPEARANCE result in series [4] (60° C., 4 weeks) is given as “white powder”. For the same compound, the POLYMORPH result in series [1] (93% RH, 4 weeks) is given as “Form C”; in series [4] (40° C./75% RH, 1 week), “Form C”; in series [4] (40° C./75% RH, 4 weeks) it was “Form C”; in series [4] (60° C., 1 week), “Form C”; in series [4] (60° C., 4 weeks), “Form C”. In addition, the “WEIGHT GAIN” value in series [1] (93% RH, 4 weeks) was found to be 0%. The ASSAY is 99.9 in series [1] (93% RH, 4 weeks, HPLC); 99.9 in series [4] (40° C./75% RH, 1 week); 99.9 in series [4] (40° C./75% RH, 2 weeks); 99.9 in series [4] (40° C./75% RH, 4 weeks); 99.9 in series [4] (60° C., 1 week); 99.9 in series [4] (60° C., 2 weeks). The same compound returned an ASSAY in series [4] (60° C., 4 weeks) of 99.9. Moreover, the hygroscopicity result in series [1] (93% relative humidity, 4 weeks) is recorded as “not hygroscopic”. Also, the thermal stability entry in series [4] (at 40 and 60° C. over the duration of the assay) is recorded as “thermal stable”.

With `[N-]=[N+]=N[C@]1(CO)O[C@@H](n2ccc(N)nc2=O)[C@H](O)[C@@H]1O` [Form B of Ia], the figures for the “exothermic decomposition onset temperature” value in series [2] and in series [2] (listed as Form B polymorph of Ia) were “approximately 189 °C” and 189 °C, respectively. Moreover, the polymorphic transformation result in series [5] is reported as “transformed into Form C”.

On to `[N-]=[N+]=N[C@]1(CO)O[C@@H](n2ccc(N)nc2=O)[C@H](O)[C@@H]1O` [Form A of Ia], for which the “exothermic decomposition onset temperature” value was “approximately 185 °C” in series [2] and 185 °C in series [2] (listed as Form A polymorph of Ia). In addition, in series [5], the polymorphic transformation entry was “transformed into Form C”.
